# Experiments:
# Assay type in all cases: in vivo
# [1] = test system: 3rd-instar larvae of Spodoptera exigua Hübner; assay: Joint toxicity (LC50, CTC) of I-72 + indoxacarb, leaf-disk dipping, Example 1, Table 1; settings: Spodoptera exigua, cabbage leaf-disk dipping, 72 h, A = compound I-72, B = indoxacarb, read-out: LC50
# Description: Test subject: 3rd-instar larvae of Spodoptera exigua Hübner, a sensitive strain reared indoors.
# Test conditions: temperature: 24-26° C., humidity: RH 60%, and illumination: L:D=14:10.
# Preparation method: the test pesticides were accurately weighed respectively with an electronic analytical balance. After the two technical materials were respectively added into an appropriate amount of solvent and completely dissolved, the stock solution of the required concentration was prepared with water containing 0.1% Tween 80. The stock solutions of the two active ingredients were mixed in a certain ratio to prepare a mixed solution, which was then diluted respectively into a series of pesticide solutions with a certain concentration gradient according to the experimental design dosage.
# Experimental method: the dipping method was adopted. […]
# The co-toxicity coefficient (CTC value) of the mixture was calculated according to the following formula:
# [formula] • in the formula: ATI-measured toxicity index of the mixture; S-LC50 of the standard pesticide; and M-LC50 of the mixture. […]
# [formula] • in the formula: CTC-co-toxicity coefficient; ATI-measured toxicity index of the mixture; and TTI-theoretical toxicity index of the mixture. • CTC-co-toxicity coefficient • ATI-measured toxicity index of the mixture • TTI-theoretical toxicity index of the mixture
# [2] = test system: adult Bemisia tabaci (Gennadius); assay: whole plant or invertebrate; settings: in Phaseolus vulgaris, 72 h
# Description: (§1) Preparation of the pesticide solution: according to different test requirements, the test samples were accurately weighed respectively with an electronic analytical balance. The technical pesticides were dissolved in acetone, and then diluted with 0.1% Tween 80 water into a series of pesticide solutions with a certain concentration gradient according to the experimental design dosage.
# In addition, a blank control was set up. The number of dead and live insects was investigated 72 hours later.
# [3] = test system: adult Phyllotreta striolata (Walker); assay: Joint toxicity of I-72 + rotenone, insect dipping, Example 35, Table 35; settings: A = compound I-72, B = rotenone, insect dipping 10 s, read-out: LC50
# Excerpt: Test target: adult Phyllotreta striolata (Walker), a strain reared indoors.
# Experimental method: the dipping method was adopted. Adult flea beetles of uniform size were put into an insect-dipping cage and dipped for 10 s in the order from low dosage to high dosage according to the experimental design, with 30 beetles for each treatment. The beetles were placed in a 9-cm-diameter Petri dish with filter paper, with 3 replicates for each treatment. In addition, a blank control was set up. The treated test materials were placed in an observation room, and the temperature, humidity and illumination of the observation room could be adjusted as needed.
# The test conditions, the preparation of the pesticide solution and the evaluation method were the same as those in Example 1.
# [4] = test system: 2nd-instar larvae of Chilo suppressalis (Walker); assay: Joint toxicity of I-72 + carbaryl, rice stalk spraying, Example 23, Table 23
# Excerpt: In addition, a blank control was set up.
# The treated test materials were placed in an observation room, and the temperature, humidity and illumination of the observation room could be adjusted as needed.
# [5] = test system: adult Phyllotreta vittuta Fabr.; assay: Joint toxicity of I-72 + acetamiprid, Example 65, Table 65; settings: A = compound I-72, B = acetamiprid; potted cabbage seedling spraying; 72 hours; read-out: LC50
# Description: Test target: adult Phyllotreta vittuta Fabr.
# as §1
# Experimental method: first, uniform and consistent potted cabbage seedlings were selected. Then, uniform spraying was performed with the pesticide solution in the order from low dosage to high dosage according to the experimental design. After air-drying in the shade, adult flea beetles were transferred onto the treated cabbage seedlings, and then glass covers were put on them, with about 30-40 adult flea beetles on each seedling and 3 replicates for each treatment. In addition, a blank control was set up.
# (§2) The treated test materials were placed in an observation room, and the temperature, humidity and illumination of the observation room could be adjusted as needed. The number of dead and live insects was investigated 72 hours later.
# [6] = test system: Myzus persicae (Sulzer) nymphs; assay: Joint toxicity of I-72 + pymetrozine, Example 73, Table 73; settings: A = compound I-72, B = pymetrozine, cabbage leaf spraying, 48 hours, read-out: LC50
# Description: Test target: Myzus persicae (Sulzer) nymphs, a sensitive strain reared indoors.
# as §1
# Experimental method: first, cabbage leaves with uniform and consistent Myzus persicae (Sulzer) were selected, with about 30-40 insects on each leaf. Then, they were evenly sprayed with the pesticide solution in the order from low dosage to high dosage according to the experimental design, with 1.5 mL of the solution for each leaf and 3 replicates for each treatment. In addition, a blank control was set up.
# as §2, with “48” for “72”, “later. […] Then, the co-toxicity coefficient of each ratio was calculated using the Sun Y-P method to evaluate the mixing effect, as in Example 1.” for “later.”
smiles,measurement,setting,value
CN(C(=O)c1ccc2c(c1)OC(F)(F)O2)c1cccc(C(=O)Nc2c(Br)cc(C(F)(C(F)(F)F)C(F)(F)F)cc2OC(F)F)c1F [Compound I-72],LC50,[1],0.227 µg/mL
same,LC50,[2],2.91 µg/mL
same,LC50,[3],1.81 µg/mL
same,LC50,[4],0.881 µg/mL
same,LC50,[5],1.14 µg/mL
same,LC50,[6],7.96 µg/mL

# Source: US20260198495A1, “BINARY INSECTICIDE COMPOSITION AND USE THEREOF” (SHENYANG SINOCHEM AGROCHEMICALS R & D CO., LTD., priority 2022, published 2026)
